{
  "source": "patent US20110195924A1",
  "about": "“Methods of Inhibiting the Interaction Between S100P and the Receptor for Advanced Glycation End-Products” (priority 2008, published 2011)",
  "key": {"NFκB promoter activity [1]": {"system": "NFκB promoter activity", "experiment": "NFκB luciferase reporter assay in Panc-1 cells", "type": "cell-based", "protocol": "(§1) FIGS. 3A, 3B, and 3C show the effect of cromolyn on S100P stimulated NFκB promoter activity in pancreatic cancer cells in vitro and in vivo. Panc-1 and BxPC-3 pancreatic cancer cell lines stably expressing an NFκB luciferase reporter were examined for the effects of S100P and cromolyn. […] Means and 95% confidence intervals are shown for three independent experiments performed in triplicate. *, P=0.022, †, P<0.001, and P<0.001 versus control; #, P=0.005 versus 100 nM S100P alone. […] Means and 95% confidence intervals are shown for three independent experiments performed in triplicate. *, P=0.003, †, P<0.001 versus control. […] After 1 week, tumor growth was assessed and NFκB activity was analyzed using an IVIS system (Xenogen Corp., Alameda, Calif.) after injecting mice with D-luciferin (150 mg per kg body weight) (0 time point). The mice were treated with cromolyn (5 mg per kg body weight by intraperitoneal injection), and NFκB luciferase activity was analyzed again at 24 and 48 hours. *, P=0.005 versus control. Means and 95% confidence intervals are shown for two independent experiments (n=4 mice per group). Two-tailed two-sample (unpaired for in vitro and paired for in vivo studies) Student's t-tests were used to determine P values.\nTo study pancreatic cancer cell NFκB activity, a lentivirus NFκB luciferase reporter gene construct was developed. The NFκB luciferase reporter gene was excised and isolated from the pNF-κB-Luc Vector (Clonetec, Mountain View, Calif.) and cloned into the lentiviral vector FG9 (Gift from Dr. Xiao-Feng Qin, Dept. of Immunology, M.D. Anderson Cancer Center replacing the CMV/LTR and UBiC promoters, to form Lenti-NFκB-Luc. Lentiviral NFκB vector were co-transfected with packaging constructs pRSVREV, pMDLg/pRRE, and the VSV-G expression plasmid pHCMVG, and lentivirus was produced in 293T cells by the calcium transfection method, as previously described in Qin, et al., Inhibiting HIV-1 infection in human T cells by lentiviral-mediated delivery of small interfering RNA against CCR5; Proc. Natl. Acad. Sci. U.S.A. 2003 Jan. 7; 100(1):183-8. […] Functional validation of NFκB reporter activity was conducted in vitro using TNF-α (20 ng/mL, Sigma, St. Louis, Mo.) as a positive control.\nBxPC-3 and Panc-1 cells stably expressing a Lenti-NFkB-luc reporter construct were treated with S100P, cromolyn, or the combination for 5 hours. D-luciferin (150 μg/mL) was added to the cells, and luciferase activity was measured using an IVIS bioluminescence system (Xenogen Co. Alameda, Calif.). Each experiment was conducted three times in triplicate."}, "NFκB promoter activity [2]": {"system": "NFκB promoter activity", "experiment": "NFκB luciferase reporter assay in BxPC-3 cells", "type": "cell-based", "conditions": "5 hours; for basal NFκB activity, mean: 0 μM mean 1.4×10^6"}, "NFκB promoter activity [3]": {"system": "NFκB promoter activity", "experiment": "NFκB luciferase activity in vivo, orthotopic BxPC-3 tumors", "parameters": "species or system mice", "protocol": "as §1, with “values. To measure NFκB promoter activity in vivo, BxPC-3 cells (50,000/50 μL) stably expressing a Lenti-NFkB-luc reporter were transplanted orthotopically into the pancreas of 4-week-old male CB17 scid mice (n=4 mice per experiment). After 1 week mice were injected with D-luciferin (150 mg per kg body weight, i.p.), and basal NFκB activity was determined using the IVIS system. Subsequently, mice were injected with cromolyn (5 mg per kg body weight, i.p.), and NFκB luciferase activity was re-analyzed after 24 and 48 hours. These experiments were performed three times. To determine whether cromolyn treatment could also reduce NFκB activity in vivo, NFκB activity of BxPC-3 cells stably expressing an NFκB luciferase reporter construct that had been transplanted orthotopically into the pancreas of […] (n=4) was examined. After 1 week, NFκB luciferase activity was determined before (0 time point) and at 24 and 48 hours after a single dose of cromolyn (5 mg per kg body weight by intraperitoneal [i.p.] injection). Cromolyn administration reduced basal NFκB activity by at least 80% 24 hours after injection (0 h, mean=9.9×10^6 versus 24 h, mean=1.3×10^6 photons/sec, difference=8.6×10^6 photons/sec, 95% CI=3.1×10^6 to 1.4×10^7 photons/sec; P=0.005, FIG. 3C).” for “values.”"}, "BxPC-3 cells": {"system": "BxPC-3 cells", "experiment": "BxPC-3 cell viability, alone or with gemcitabine", "type": "cell-based", "conditions": "72 hours", "protocol": "BxPC-3 cells were plated at 1.0×10^3 cells/well and treated with 0 μM, 1 μM, 10 μM, and 100 μM of cromolyn or C5 alone or in combination with gemcitabine 1 μM and cell viability was analyzed after 72 hours. Two-tailed two-sample (unpaired) Student's t-tests were used to determine P values. […] BxPC-3 cells were plated at 1.0×10^3 cells/well and treated with either 100 μM of cromolyn or 1 μM C5 alone or in combination with gemcitabine (1 μM) and cell viability was analyzed after 72 hours."}, "SKOV3 ovarian cells": {"system": "SKOV3 ovarian cells", "experiment": "SKOV3 ovarian cell viability with taxol", "type": "cell-based", "conditions": "taxol 5 μM, cromolyn 10 μM, 48 hours", "protocol": "SKOV3 ovarian cells were plated and treated with taxol (5 μM) either in the presence or absence of cromolyn (10 μM) for 48 hours. Cell viability was analyzed after 48 hours. *, P<0.05."}, "[4]": {"conditions": "S100P 100 nM + cromolyn 100 μM, 5 hours"}},
  "data": [
    {"smiles": "O=C(O)c1cc(=O)c2c(OCC(O)COc3cccc4oc(C(=O)O)cc(=O)c34)cccc2o1", "note": "[cromolyn, disodium 1,3-bis[(2′-carboxylatochromon-5′-yl)oxy]-2-hydroxypropane]", "values": [
      {"measurement": "NFκB promoter activity, difference versus 100 nM S100P alone", "setting": "NFκB promoter activity [1]; [4]", "value": 7100, "unit": "photons/sec"},
      {"measurement": "NFκB promoter activity, mean", "setting": "NFκB promoter activity [1]; [4]", "value": 7360, "unit": "photons/sec"},
      {"measurement": "basal NFκB activity", "setting": "NFκB promoter activity [1]; cromolyn alone", "value": "no effect"},
      {"measurement": "basal NFκB activity, difference versus 0 μM", "setting": "NFκB promoter activity [2]; cromolyn 10 μM", "value": "4.7×10^5 photons/sec"},
      {"measurement": "basal NFκB activity, mean", "setting": "NFκB promoter activity [2]; cromolyn 10 μM", "value": "9.4×10^5 photons/sec"},
      {"measurement": "basal NFκB activity, difference versus 0 μM", "setting": "NFκB promoter activity [2]; cromolyn 100 μM", "value": "5.9×10^5 photons/sec"},
      {"measurement": "basal NFκB activity, mean", "setting": "NFκB promoter activity [2]; cromolyn 100 μM", "value": "8.2×10^5 photons/sec"},
      {"measurement": "NFκB luciferase activity, difference 0 h versus 24 h", "setting": "NFκB promoter activity [3]; cromolyn 5 mg per kg i.p., 24 h", "value": "8.6×10^6 photons/sec"},
      {"measurement": "NFκB luciferase activity, mean", "setting": "NFκB promoter activity [3]; cromolyn 5 mg per kg i.p., 24 h, 0 h mean 9.9×10^6", "value": "1.3×10^6 photons/sec"},
      {"measurement": "NFκB activity", "setting": "NFκB promoter activity [3]; cromolyn 5 mg per kg i.p., 48 hours after injection", "value": "returned to control levels"},
      {"measurement": "reduction of basal NFκB activity", "setting": "NFκB promoter activity [3]; single dose cromolyn 5 mg per kg i.p., 24 hours after injection", "value": "at least 80%"},
      {"measurement": "concentration giving the same level of cell reduction in combination with gemcitabine", "setting": "BxPC-3 cells; BxPC-3, gemcitabine 1 μM, FIG. 10", "value": 100, "unit": "µM"},
      {"measurement": "BxPC-3 cell viability", "setting": "BxPC-3 cells; alone and in conjunction with gemcitabine 1 μM", "value": "inhibit"},
      {"measurement": "cell killing effect of taxol on ovarian cancer cells", "setting": "SKOV3 ovarian cells", "value": "increased the cell killing effect of taxol"}
    ]}
  ]
}
